Values joined by “and” are separate entries in the source; they are usually repeats but may differ in a detail not shown here. Equal values may be shown once. Read-outs that look alike come from different tables or passages of the source.
Key:
SFRP-1 [1] = target: T1, SFRP-1 (Homo sapiens, UniProt Q8N474); assay: Fluorescence polarization binding assay (competitive displacement of a probe compound from SFRP-1); conditions: fluorescence anisotropy, 45 nM SFRP-1, 20 nM probe;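 note: test compound competes with a fluorescent probe held by SFRP-1, seen as a drop in probe anisotropy after incubation in darkness, with anisotropy as function of rising compound dose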
T1 sequence (Q8N474 32-314): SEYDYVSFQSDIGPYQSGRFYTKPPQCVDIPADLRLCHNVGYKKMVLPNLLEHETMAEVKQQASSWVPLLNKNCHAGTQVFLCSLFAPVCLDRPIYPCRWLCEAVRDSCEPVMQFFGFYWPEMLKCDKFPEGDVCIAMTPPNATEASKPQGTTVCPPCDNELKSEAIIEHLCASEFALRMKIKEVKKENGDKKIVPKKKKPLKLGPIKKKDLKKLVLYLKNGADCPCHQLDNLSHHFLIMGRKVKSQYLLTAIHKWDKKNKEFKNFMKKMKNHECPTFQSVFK

SFRP-1 [2] = target: T1, SFRP-1; assay: Cell-based assay for in vitro measurement of SFRP-1/SARP2 antagonist activity (U2OS cells co-transfected with 16x TCF-tk-Luciferase reporter, Wnt and hSFRP-1); conditions: for fold induction at 15 µM / fold induction at 10 µM: U2OS;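 for all read-outs here: U2OS cells co-transfected with a TCF-tk luciferase reporter, a Wnt vector, hSFRP-1 or empty vector and CMV-βgal, luciferase luminescence read in cell lysates alongside βgal activity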
[3] = read-out: Fold Induction with SFRP-1, Conc 15 μM, single dose, luciferase reporter, fold induction over SFRP-1 control, cells with SFRP-1
[4] = read-out: Fold Induction without SFRP-1, Conc 15 μM, single dose, luciferase reporter, cells without SFRP-1 (specificity control)
[5] = read-out: Fold Induction with SFRP-1, U2OS cells, single dose 10 μM, luciferase reporter, fold induction over SFRP-1 control

Row | Compound | IC50 (SFRP-1 [1]) | fold induction at 15 µM (SFRP-1 [2]; [3]) | fold induction at 15 µM (SFRP-1 [2]; [4]) | EC50 (SFRP-1 [2]) [nM] | fold induction at 10 µM (SFRP-1 [2]; [5]) | fold induction at 10 µM (SFRP-1 [2]; read-out: Fold Induction with SFRP-1) | fold induction at 15 µM (SFRP-1 [2]; read-out: Fold Induction with SFRP-1, Conc 15 μM, with SFRP-1, fold induction over SFRP-1 control, single dose) | fold induction at 15 µM (SFRP-1 [2]; read-out: Fold Induction without SFRP-1, Conc 15 μM, without SFRP-1, single dose)
1 | CC(C)c1ccc(S(=O)(=O)c2ccc(F)cc2)cc1S(=O)(=O)NCCc1cccnc1 [Example 534, 5-[(4-fluorophenyl)sulfonyl]-2-isopropyl-N-(2-pyridin-3-ylethyl)benzenesulfonamide] | 200 nM and 300 nM | 4 | 1.1 |  |  |  |  | 
2 | Cc1cccc(S(=O)(=O)c2ccc(C(C)C)c(S(=O)(=O)NCCc3ccccn3)c2)c1 [Example 579, 2-isopropyl-5-[(3-methylphenyl)sulfonyl]-N-(2-pyridin-2-ylethyl)benzenesulfonamide] | 600 nM | 3.4 | 1 |  |  |  |  | 
3 | N#CCN1CCC(NS(=O)(=O)c2cc(S(=O)(=O)c3ccccc3)ccc2C(F)(F)F)CC1 [Example 750, N-[1-(cyanomethyl)piperidin-4-yl]-5-(phenylsulfonyl)-2-(trifluoromethyl)benzenesulfonamide] | 200 nM |  |  | 937 | 4.2 |  |  | 
4 | CN(CCNS(=O)(=O)c1cc(S(=O)(=O)c2ccccc2)ccc1C(F)(F)F)C(=O)Oc1ccc(Br)cc1 [Example 873, 4-bromophenyl methyl[2-({[5-(phenylsulfonyl)-2-(trifluoromethyl)phenyl]sulfonyl}amino)ethyl]carbamate] | 1600 nM |  |  |  |  | 2.1 |  | 
5 | CN(CCNS(=O)(=O)c1cc(S(=O)(=O)c2ccccc2)ccc1C(F)(F)F)C(=O)N[C@H]1CCNC1 [Example 937, N-[2-(methyl{[(3S)-pyrrolidin-3-ylamino]carbonyl}amino)ethyl]-5-(phenylsulfonyl)-2-(trifluoromethyl)benzenesulfonamide] | 1700 nM |  |  | 2300 | 2.8 |  |  | 
6 | CC(C)(C)OC(=O)N1CC[C@H](NS(=O)(=O)c2cc(S(=O)(=O)c3ccccc3)ccc2C(F)(F)F)C1 [Example 794, tert-butyl(3S)-3-({[5-(phenylsulfonyl)-2-(trifluoromethyl)phenyl]sulfonyl}amino)pyrrolidine-1-carboxylate] | 100 nM |  |  | 534 | 3.3 |  |  | 
7 | CCCCNC(=O)N(C)CCNS(=O)(=O)c1cc(S(=O)(=O)c2ccccc2)ccc1C(F)(F)F [Example 831, N-(2-[[(butylamino)carbonyl](methyl)amino]ethyl}-5-(phenylsulfonyl)-2-(trifluoromethyl)benzenesulfonamide] | 260 nM |  |  | 1460 | 3.7 |  |  | 
8 | Cc1ccc(S(=O)(=O)c2ccccc2)cc1S(=O)(=O)NC1CCN(C(=O)NC(C)(C)C)CC1 [Example 490, N-(tert-butyl)-4-({[2-methyl-5-(phenylsulfonyl)phenyl]sulfonyl}amino)piperidine-1-carboxamide] | 2300 nM | 1.7 | 1 |  |  |  |  | 
9 | O=C(c1ccc(OC(F)(F)F)cc1)N1CCC(NS(=O)(=O)c2cc(S(=O)(=O)c3ccccc3)ccc2C(F)(F)F)CC1 [Example 709, 5-(phenylsulfonyl)-N-{1-[4-(trifluoromethoxy)benzoyl]piperidin-4-yl}-2-(trifluoromethyl)benzenesulfonamide] | 400 nM |  |  | 2350 | 4.5 |  |  | 
10 | CC(C)c1ccc(S(=O)(=O)c2ccccc2)cc1S(=O)(=O)NCCCn1ccnc1 [Example 296, N-[3-(1H-imidazol-1-yl)propyl]-2-isopropyl-5-(phenylsulfonyl)benzenesulfonamide] | 200 nM |  |  |  |  |  | 3.3 | 1.4
11 | O=S(=O)(N[C@H](CO)Cc1c[nH]c2ccccc12)c1cc(S(=O)(=O)c2ccccc2)ccc1C(F)(F)F [Example 721, N-[(1S)-2-hydroxy-1-(1H-indol-3-ylmethyl)ethyl]-5-(phenylsulfonyl)-2-(trifluoromethyl)benzenesulfonamide] | 2000 nM |  |  |  | 2.7 |  |  | 

From patent US20060276464A1, “Diarylsulfone sulfonamides and use thereof” (Wyeth, priority 2005, published 2006)
